Measurements taken from patent US6737383B1, “Herbicidal oxadiazolidines” (priority 1999, dated 2004).

Legend:
duck salad = assay: Test B flood test duck salad; format: in vivo, Heteranthera limosa
In short: (§1)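 Flood test on plants grown to the 2-leaf stage; treated plants kept in greenhouse twelve to sixteen days, then visually rated against controls on a 0 (no effect) to 10 (complete control) scale.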

surinam grass = assay: Test B pre/postemergence surinam grass; format: in vivo, Brachiaria decumbens
In short: (§2)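 Test chemicals in a non-phytotoxic solvent mixture with surfactant were sprayed preemergence onto planted seeds and postemergence onto plants 2 to 18 cm tall (1- to 4-leaf stage). After twelve to sixteen days in a greenhouse, injury was visually rated against untreated controls from 0 (no effect) to 10 (complete control).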

sugar beet = assay: Test B pre/postemergence sugar beet; format: in vivo, Beta vulgaris; conditions: for Plant response rating, Sugarbeets: Rate 250 g/ha
In short: as §2

rape = assay: Test B pre/postemergence rape; format: in vivo, Brassica napus
In short: as §2

morningglory = assay: Test B pre/postemergence morningglory; format: in vivo, Ipomoea hederacea
In short: as §2

bamyardgrass = assay: Test B flood test barnyardgrass; format: in vivo, Echinochloa crus-galli
In short: as §1

smallflower flatsedge = assay: Test B flood test smallflower flatsedge; format: in vivo, Cyperus difformis
In short: as §1

cocklebur = assay: Test B pre/postemergence cocklebur; format: in vivo, Xanthium strumarium
In short: as §2

wild oat = assay: Test B pre/postemergence wild oat; format: in vivo, Avena fatua; conditions: for Plant response rating, Wild oats: Rate 250 g/ha
In short: as §2

soybean = assay: Test B pre/postemergence soybean; format: in vivo, Glycine max
In short: as §2

purple nutsedge = assay: Test B pre/postemergence purple nutsedge; format: in vivo, Cyperus rotundus
In short: as §2

giant foxtail = assay: Test B pre/postemergence giant foxtail; format: in vivo, Setaria faberii
In short: as §2

wheat = assay: Test B pre/postemergence wheat; format: in vivo, Triticum aestivum; conditions: for Plant response rating, Wheat: Rate 250 g/ha
In short: as §2

blackgrass = assay: Test B pre/postemergence blackgrass; format: in vivo, Alopecurus myosuroides
In short: as §2

bedstraw = assay: Test B pre/postemergence bedstraw; format: in vivo, Galium aparine
In short: as §2

pigweed = assay: Test B pre/postemergence pigweed; format: in vivo, Amaranthus retroflexus
In short: as §2

[1] = Postemergence (flood test species), Rate 125 g/ha, scale of 0 to 10 where 0 is no effect and 10 is complete control
[2] = Rate 62 g/ha, Postemergence section, flood test species, scale of 0 to 10 where 0 is no effect and 10 is complete control
[3] = Rate 250 g/ha, headed Pre-emergence (flood test species), scale 0 to 10 (0 no effect, 10 complete control)
[4] = Rate 500 g/ha, headed Pre-emergence (flood test species), scale 0 to 10 (0 no effect, 10 complete control)
[5] = Rate 500 g/ha, listed under Postemergence (flood test species), scale 0 to 10, 0 no effect, 10 complete control
[6] = Rate 1000 g/ha, Pre-emergence (as headed), scale 0 to 10
[7] = Rate 2000 g/ha, Pre-emergence (as headed), scale 0 to 10
[8] = flood test, listed under Postemergence, Rate 250 g/ha, scale 0 to 10, 0 no effect, 10 complete control
[9] = Postemergence, Rate 62 g/ha, scale 0 to 10, 0 is no effect, 10 is complete control
[10] = Postemergence, Rate 250 g/ha, scale 0 to 10, 0 no effect, 10 complete control
[11] = Preemergence, Rate 62 g/ha, scale 0 to 10 (0 no effect, 10 complete control)
[12] = Preemergence, Rate 125 g/ha, scale 0 to 10 (0 no effect, 10 complete control)
[13] = Preemergence, Rate 250 g/ha, scale of 0 to 10 where 0 is no effect and 10 is complete control
[14] = Preemergence, Rate 500 g/ha, scale 0 to 10 (0 no effect, 10 complete control)
[15] = Rate 125 g/ha, Postemergence, scale 0 to 10, 0 no effect, 10 complete control
[16] = Postemergence, Rate 125 g/ha, scale of 0 to 10 where 0 is no effect and 10 is complete control
[17] = Preemergence, Rate 125 g/ha, 0 is no effect, 10 is complete control
[18] = Preemergence, scale of 0 to 10 where 0 is no effect and 10 is complete control
[19] = Rate 62 g/ha, Postemergence, scale of 0 to 10 where 0 is no effect and 10 is complete control
[20] = Postemergence, scale 0 to 10, 0 is no effect, 10 is complete control
[21] = Rate 500 g/ha, Postemergence, scale 0 to 10, 0 no effect, 10 complete control
[22] = Rate 250 g/ha, Postemergence, scale 0 to 10, 0 is no effect, 10 is complete control

## CCn1c(=O)on(C(=O)N(c2ccccc2)C(C)C)c1=O [Compound 117]
Duck salad; [1]
  Ducksalad plant response rating: 0
Duck salad; [2]
  Ducksalad plant response rating: 0
Duck salad; [3]
  Ducksalad plant response rating: 0
Duck salad; [4]
  Plant response rating, Ducksalad: 0
Duck salad; [5]
  Ducksalad plant response rating: 0
Duck salad; [6]
  Ducksalad plant response rating: 0
Duck salad; [7]
  Ducksalad plant response rating: 1
Duck salad; [8]
  Ducksalad plant response rating: 0
Surinam grass; [9]
  B. signalgrass plant response rating: 6
Surinam grass; [10]
  B. signalgrass plant response rating: 9
Surinam grass; [11]
  B. signalgrass plant response rating: 6
Surinam grass; [12]
  Plant response rating, B. signalgrass: 9
Surinam grass; [13]
  Plant response rating, B. signalgrass: 9
Surinam grass; [14]
  B. signalgrass plant response rating: 10
Surinam grass; [15]
  B. signalgrass plant response rating: 8
Surinam grass; Rate 500 g/ha, Postemergence, scale of 0 to 10 where 0 is no effect and 10 is complete control
  B. signalgrass plant response rating: 9
Sugar beet; [16]
  Sugarbeets plant response rating: 0
Sugar beet; [11]
  Sugarbeets plant response rating: 0
Sugar beet; [17]
  Sugarbeets plant response rating (0 to 10 scale): 8
Sugar beet; [18]
  Plant response rating, Sugarbeets: 9
Sugar beet; [14]
  Sugarbeets plant response rating: 10
Sugar beet; [19]
  Sugarbeets plant response rating: 0
Sugar beet; [20]
  Plant response rating, Sugarbeets: 3
Sugar beet; [21]
  Sugarbeets plant response rating: 7
rape; [16]
  Rape plant response rating: 0
rape; [10]
  Rape plant response rating: 2
rape; [11]
  Rape plant response rating: 6
rape; [12]
  Plant response rating, Rape: 10
rape; [13]
  Plant response rating, Rape: 10
rape; [14]
  Rape plant response rating: 10
rape; [19]
  Rape plant response rating: 0
rape; [21]
  Rape plant response rating: 6
morningglory; [16]
  Morningglory plant response rating: 7
morningglory; [10]
  Morningglory plant response rating: 7
morningglory; [11]
  Morningglory plant response rating: 0
morningglory; [12]
  Plant response rating, Morningglory: 0
morningglory; [13]
  Plant response rating, Morningglory: 2
morningglory; [14]
  Morningglory plant response rating: 6
morningglory; [19]
  Morningglory plant response rating: 2
morningglory; [21]
  Morningglory plant response rating: 10
bamyardgrass; [9]
  Barnyardgrass plant response rating: 0
bamyardgrass; Rate 125 g/ha, Postemergence section (flood test species), scale 0 to 10, 0 no effect, 10 complete control
  Barnyardgrass plant response rating: 0
bamyardgrass; [3]
  Barnyardgrass plant response rating: 0
bamyardgrass; [4]
  Plant response rating, Barnyardgrass: 0
bamyardgrass; [5]
  Barnyardgrass plant response rating: 3
bamyardgrass; [6]
  Barnyardgrass plant response rating: 0
bamyardgrass; Rate 2000 g/ha, Pre-emergence (as headed), scale 0 to 10, 0 no effect, 10 complete control
  Barnyardgrass plant response rating: 3
bamyardgrass; [8]
  Barnyardgrass plant response rating: 2
Smallflower flatsedge; [1]
  S. Flatsedge plant response rating: 0
Smallflower flatsedge; Pre-emergence, Rate 1000 g/ha, scale 0 to 10 (0 no effect, 10 complete control)
  S. Flatsedge plant response rating: 0
Smallflower flatsedge; [2]
  S. Flatsedge plant response rating: 0
Smallflower flatsedge; Rate 250 g/ha, Postemergence (flood test), scale 0 to 10, 0 is no effect, 10 is complete control
  Plant response rating, S. Flatsedge: 0
Smallflower flatsedge; [3]
  S. Flatsedge plant response rating: 0
Smallflower flatsedge; [4]
  Plant response rating, S. Flatsedge: 0
Smallflower flatsedge; [5]
  S. Flatsedge plant response rating: 0
Smallflower flatsedge; [7]
  S. Flatsedge plant response rating: 4
cocklebur; [16]
  Cocklebur plant response rating: 0
cocklebur; [10]
  Cocklebur plant response rating: 0
cocklebur; [11]
  Cocklebur plant response rating: 0
cocklebur; [12]
  Plant response rating, Cocklebur: 0
cocklebur; [13]
  Plant response rating, Cocklebur: 0
cocklebur; [14]
  Cocklebur plant response rating: 0
cocklebur; [19]
  Cocklebur plant response rating: 0
cocklebur; [21]
  Cocklebur plant response rating: 1
Wild oat; [16]
  Wild oats plant response rating: 3
Wild oat; [11]
  Wild oats plant response rating: 3
Wild oat; [17]
  Wild oats plant response rating (0 to 10 scale): 6
Wild oat; [18]
  Plant response rating, Wild oats: 10
Wild oat; [14]
  Wild oats plant response rating: 10
Wild oat; [19]
  Wild oats plant response rating: 0
Wild oat; [20]
  Plant response rating, Wild oats: 4
Wild oat; [21]
  Wild oats plant response rating: 8
soybean; [16]
  Soybean plant response rating: 5
soybean; [11]
  Soybean plant response rating: 0
soybean; [12]
  Plant response rating, Soybean: 8
soybean; [13]
  Plant response rating, Soybean: 8
soybean; [14]
  Soybean plant response rating: 9
soybean; [19]
  Soybean plant response rating: 2
soybean; [22]
  Plant response rating, Soybean: 5
soybean; [21]
  Soybean plant response rating: 7
Purple nutsedge; [16]
  Nutsedge plant response rating: 7
Purple nutsedge; [10]
  Nutsedge plant response rating: 7
Purple nutsedge; [11]
  Nutsedge plant response rating: 0
Purple nutsedge; [12]
  Plant response rating, Nutsedge: 0
Purple nutsedge; [13]
  Plant response rating, Nutsedge: 3
Purple nutsedge; [14]
  Nutsedge plant response rating: 7
Purple nutsedge; [19]
  Nutsedge plant response rating: 2
Purple nutsedge; [21]
  Nutsedge plant response rating: 7
Giant foxtail; [16]
  Giant foxtail plant response rating: 9
Giant foxtail; [10]
  Giant foxtail plant response rating: 9
Giant foxtail; [11]
  Giant foxtail plant response rating: 10
Giant foxtail; [12]
  Plant response rating, Giant foxtail: 10
Giant foxtail; [13]
  Plant response rating, Giant foxtail: 10
Giant foxtail; [14]
  Giant foxtail plant response rating: 10
Giant foxtail; [19]
  Giant foxtail plant response rating: 9
Giant foxtail; [21]
  Giant foxtail plant response rating: 9
wheat; [16]
  Wheat plant response rating: 6
wheat; [11]
  Wheat plant response rating: 2
wheat; [17]
  Wheat plant response rating (0 to 10 scale): 4
wheat; [18]
  Plant response rating, Wheat: 7
wheat; [14]
  Wheat plant response rating: 8
wheat; [19]
  Wheat plant response rating: 2
wheat; [20]
  Plant response rating, Wheat: 6
wheat; [21]
  Wheat plant response rating: 8
blackgrass; [16]
  Blackgrass plant response rating: 9
blackgrass; [10]
  Blackgrass plant response rating: 9
blackgrass; [11]
  Blackgrass plant response rating: 8
blackgrass; [12]
  Plant response rating, Blackgrass: 8
blackgrass; [13]
  Plant response rating, Blackgrass: 10
blackgrass; [14]
  Blackgrass plant response rating: 10
blackgrass; [19]
  Blackgrass plant response rating: 8
blackgrass; [21]
  Blackgrass plant response rating: 9
bedstraw; [9]
  Bedstraw plant response rating: 0
bedstraw; [10]
  Bedstraw plant response rating: 2
bedstraw; [11]
  Bedstraw plant response rating: 0
bedstraw; [12]
  Plant response rating, Bedstraw: 0
bedstraw; [13]
  Plant response rating, Bedstraw: 0
bedstraw; [14]
  Bedstraw plant response rating: 0
bedstraw; [15]
  Bedstraw plant response rating: 0
pigweed; [16]
  Redroot pigweed plant response rating: 0
pigweed; [11]
  Redroot pigweed plant response rating: 9
pigweed; [12]
  Plant response rating, Redroot pigweed: 10
pigweed; [13]
  Plant response rating, Redroot pigweed: 10
pigweed; [14]
  Redroot pigweed plant response rating: 10
pigweed; [19]
  Redroot pigweed plant response rating: 0
pigweed; [22]
  Plant response rating, Redroot pigweed: 0
pigweed; [21]
  Redroot pigweed plant response rating: 6
